# Residue numbers refer to the chain shown, from its start. Entries after “also recorded” stand apart in the source; their conditions may differ. Where a SMILES comes first, the peptide text is derived from it. The star is where a group is joined. X1 = CN(C)c1ccc2c(-c3ccc(C(=O)*)cc3C(=O)[O-])c3ccc(=[N+](C)C)cc-3oc2c1
# Legend:
# [1] = target: T1, NHERF1 PDZ1 E43D (1–120) (Homo sapiens, UniProt O14745, E43D); assay: ITC, PDZ1 E43D (1–120); format: binding
# T1 construct: PDZ1 E43D (1–120)
# T1 sequence (O14745 1-120 E43D): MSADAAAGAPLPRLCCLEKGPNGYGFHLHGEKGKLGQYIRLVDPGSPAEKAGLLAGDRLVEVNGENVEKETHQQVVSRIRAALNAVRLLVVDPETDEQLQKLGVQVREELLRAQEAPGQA
# Protocol: (§1) ITC measurements were performed with a MicroCalTM Auto-iTC200 system (GE Healthcare) at 25°C. Before measurement, samples were dialyzed overnight at 4°C in a buffer containing 10 mM Hepes (pH 7.5), 10 mM NaCl, 0.5 mM EDTA, and 0.5 mM ββ-mercaptoethanol. For determining NPT2A binding to PDZ constructs, the reaction cells were filled with 460 μl of 25 μM of the indicated PDZ protein. The ligand NPT2A (200–250 μM), was titrated into the cell in 19 injections of 2 μl each, with 150 s intervals between each injection. To remove the contribution of NPT2A dilution heat, a control experiment has been performed by titrating NPT2A into the buffer, which was then subtracted from the actual experimental data.
# (§2) The ITC data were analyzed using Microcal Origin 7.0 and the manufacturer's provided VPViewer module to yield the association constant (Ka), stoichiometry (n), and the observed enthalpy change (ΔH°) for the binding reactions. Analysis of ITC data directly yielded ΔH° and Ka. The Gibbs energy calculated using the equation: ΔG°=−RTlnKa (3)
# (§3) The entropy change was then obtained using the standard thermodynamic expression.
# [2] = target: T2, NHERF1 PDZ1 H27N (1–120) (Homo sapiens, UniProt O14745, H27N); assay: ITC, PDZ1 H27N (1–120); format: binding
# T2 construct: PDZ1 H27N (1–120)
# T2 sequence (O14745 1-120 H27N): T1 sequence (O14745 1-120 E43D) with H27N, D43E
# Protocol: as §1, §2, §3
# [3] = target: T3, NHERF1 PDZ1 (1–140) (Homo sapiens, UniProt O14745); assay: FP saturation binding, PDZ1 (1–140); conditions: acidic pH (5.5, 6.0) compared to pH 7.4
# T3 construct: The expression plasmids pET16-N1P1 encoding PDZ1 (1–140); inferred from pET16 vector and Ni-NTA purification; made in house; host or cells: E. coli BL21 (DE3)
# T3 sequence (O14745 1-140): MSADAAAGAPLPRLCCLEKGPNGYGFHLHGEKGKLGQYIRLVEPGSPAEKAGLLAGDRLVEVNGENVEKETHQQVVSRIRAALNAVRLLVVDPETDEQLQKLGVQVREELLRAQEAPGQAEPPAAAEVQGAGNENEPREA
# [4] = target: T4, NHERF1 PDZ2 D183E (Homo sapiens, UniProt O14745, D183E); assay: FP saturation binding, PDZ2 D183E; conditions: Asp183Glu PDZ2
# T4 construct: pET16-N1P2 encoding PDZ2 (133–300) of NHERF1; inferred from pET16 vector and Ni-NTA purification; made in house; host or cells: E. coli BL21 (DE3)
# T4 sequence (O14745 133-300 D183E): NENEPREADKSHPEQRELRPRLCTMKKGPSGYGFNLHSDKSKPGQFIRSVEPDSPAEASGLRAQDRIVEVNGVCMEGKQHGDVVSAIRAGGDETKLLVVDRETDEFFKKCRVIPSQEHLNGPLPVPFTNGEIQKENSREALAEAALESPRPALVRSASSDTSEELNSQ
# [5] = system: NHERF1 PDZ1 and PDZ2; conditions: PDZ1 versus PDZ2; ref [10],[14]–[16]; cited from earlier work
# Source text: Na^+/H^+ Exchanger Regulatory Factor-1 (NHERF1), also known as the 50-kDa ezrin-binding protein EBP50, is a multi-domain scaffolding protein that coordinates the assembly and trafficking of transmembrane receptors and ion channels. […] PDZ domains of NHERF1 recognize the X-S/T-X-ΦCOO ^- sequence of target partners (class I PDZ-binding motifs), where X is promiscuous and Φ is a hydrophobic residue. By conve ...
# [6] = target: T5, NHERF1 PDZ2 N167H/D183E (Homo sapiens, UniProt O14745, D183E/N167H); assay: FP saturation binding, PDZ2 N167H/D183E; conditions: Asn167His/Asp183Glu PDZ2
# T5 construct: pET16-N1P2 encoding PDZ2 (133–300) of NHERF1; inferred from pET16 vector and Ni-NTA purification; made in house; host or cells: E. coli BL21 (DE3)
# T5 sequence (O14745 133-300 N167H/D183E): T4 sequence (O14745 133-300 D183E) with N35H
# [7] = target: T6, NHERF1 PDZ1 H27N/E43D (1–120) (Homo sapiens, UniProt O14745, E43D/H27N); assay: ITC, PDZ1 H27N/E43D (1–120); format: binding
# T6 construct: PDZ1 H27N/E43D (1–120)
# T6 sequence (O14745 1-120 H27N/E43D): T1 sequence (O14745 1-120 E43D) with H27N
# Protocol: as §1, §2, §3
# [8] = target: T7, NHERF1 PDZ1 (1–120) (Homo sapiens, UniProt O14745); assay: ITC, PDZ1 (1–120); format: binding; conditions: 25°C
# T7 construct: PDZ1 (1–120)
# T7 sequence (O14745 1-120): T1 sequence (O14745 1-120 E43D) with D43E
# Protocol: as §1, §2, §3
smiles,measurement,setting,value
CC(C)C[C@H](NC(=O)[C@H](CCCNC(=N)N)NC(=O)[C@@H](NC(=O)[C@H](C)NC(=O)[C@H](CC(N)=O)NC(=O)[C@H](Cc1c[nH]cn1)NC(=O)[C@H](Cc1c[nH]cn1)NC(=O)[C@H](C)NC(=O)[C@@H]1CCCN1C(=O)[C@H](CC(C)C)NC(=O)[C@H](C)NC(=O)[C@H](CC(C)C)NC(=O)[C@H](CCCNC(=N)N)NC(=O)[C@@H]1CCCN1C(=O)[C@H](CO)NC(=O)[C@@H]1CCCN1C(=O)[C@@H](NC(=O)[C@H](C)NC(=O)[C@@H]1CCCN1C(=O)[C@@H]1CCCN1C(=O)[C@H](CC(C)C)NC(=O)[C@H](CCC(=O)O)NC(=O)c1ccc(-c2c3ccc(=[N+](C)C)cc-3oc3cc(N(C)C)ccc23)c(C(=O)[O-])c1)[C@@H](C)O)[C@@H](C)O)C(=O)O [NPT2A] (X1-ELPPATPSPRLALPAHHNATRL-OH),effect of Glu43Asp mutation on interaction,[1]; FP and ITC,decrease the interaction with NPT2A
same,∆∆H^o,"[1]; Glu43Asp PDZ1 minus WT, ITC",5.2 kcal/mol
same,∆∆S^o,"[1]; Glu43Asp PDZ1 minus WT, ITC",14.8 cal mol^-1 K^-1
same,N (stoichiometry),"[1]; ITC, 25°C, pH 7.5",0.60
same,ΔH^o,"[1]; ITC, 25°C, pH 7.5",-3.0 ± 0.3 kcal/mol
same,ΔG^o,"[1]; ITC, 25°C, pH 7.5, from Eq 3",-6.8 ± 0.7 kcal/mol
same,ΔS^o,"[1]; ITC, 25°C, pH 7.5, from Eq 4",12.7±1.0 cal/mol/K
same,∆∆G^o,"[1]; ∆G^o E43D - ∆G^o WT, ITC",0.8 kcal/mol
same,effect of His27Asn mutation on interaction,[2]; FP and ITC,decrease the interaction with NPT2A
same,N (stoichiometry),"[2]; ITC, 25°C, pH 7.5",0.61
same,ΔH^o,"[2]; ITC, 25°C, pH 7.5",-7.5 ± 0.7 kcal/mol
same,ΔG^o,"[2]; ITC, 25°C, pH 7.5, from Eq 3",-7.2 ± 0.7 kcal/mol
same,ΔS^o,"[2]; ITC, 25°C, pH 7.5, from Eq 4",-0.86±0.08 cal/mol/K
same,∆∆G^o,"[2]; ∆G^o H27N - ∆G^o WT, ITC",about 0.4 kcal/mol
same,∆∆H^o,"[2]; ∆H^o H27N - ∆H^o WT, ITC",0.7 kcal/mol
same,∆∆S^o,"[2]; ∆S^o H27N - ∆S^o WT, ITC",1.3 cal mol^-1 K^-1
same,binding affinity at acidic pH,[3],significantly reduced compared to pH 7.4
same,binding affinity,[4],micromolar affinity
same,binding selectivity,[5],binds only PDZ1
same,binding affinity,[6],further enhancement of the binding affinity; also recorded: micromolar affinity
same,N (stoichiometry),"[7]; 25°C, pH 7.5",0.60
same,ΔH^o,"[7]; 25°C, pH 7.5",-5.8 ± 0.6 kcal/mol
same,ΔG^o,"[7]; 25°C, pH 7.5, from Eq 3",-6.5 ± 0.6 kcal/mol
same,ΔS^o,"[7]; 25°C, pH 7.5, from Eq 4",2.3±0.3 cal/mol/K
same,∆∆G^o,"[7]; His27 by Asn and Glu43 by Asp, versus WT",1.1 kcal/mol
same,N (stoichiometry),[8]; pH 7.5,0.92
same,ΔH^o,[8]; pH 7.5,-8.2 ± 0.8 kcal/mol
same,ΔG^o,"[8]; pH 7.5, from Eq 3",-7.6 ± 0.8 kcal/mol
same,ΔS^o,"[8]; pH 7.5, from Eq 4",-2.1±0.2 cal/mol/K

# Source: PMC4466390, “Canonical and Noncanonical Sites Determine NPT2A Binding Selectivity to NHERF1 PDZ1” (PLoS ONE, 2015)
